Experimental data reported in US20090197811A1, “ORALLY ADMINISTERED PEPTIDES TO IMPROVE OR PREVENT HEPATIC FIBROSIS” (University of Southern California, priority 2007, published 2009).
“And” between values parts separate entries of the source, which are not always exact repeats. Equal entries are not always repeated. “Also recorded” adds a separate entry of the source. Non-standard residues stand in square brackets, D forms with d.

Columns and labels:
C57Bl/6J mice [1] = experiment: Western diet model: liver histology, assessment of steatosis and inflammation; format: in vivo, mouse; details: for Fatty Change Degree of fat / Fatty Change Type (predominant type) / Inflammatory Clusters: individual mice
Method: (§1) Studies were performed in male C5713L/6J mice (Jackson Laboratories, Bar Harbor Me.). Six groups were studied (n=3-5, see FIG. 1) with 4 mice per group at the outset, except for group 2, which was started with n=5; 1 mouse died in group 1. Groups 1, 2, and 3 received the Western diet for 9.5 months; during the last 2.5 months of the 9.5 months, group 2 received SR141716 10 mg/kg/day i.g., and group 3 received D-4F, 125 μg/mouse/day, in the drinking water. Groups 4, 5, and 6 received the Western diet for 7 months followed by standard chow for 2.5 months; during the 2.5 months on standard chow, group 5 received SR141716 and group 6 received D-4F as described for groups 2 and 3, respectively. Additional control groups were studied: 6-month old C57Bl/6J mice as age-matched controls (n=5) and C57Bl/6J mice that received the Western diet for 6 months (n=6).
The slides were coded, without the pathologist knowing the specific treatment group that the slides represented. The histology was graded according to a number of histologic features. The degree of fat was graded as to the approximate percentage of hepatocytes containing fat: 0, absent; +/−, less than 5%; 1+, 5-25%; 2+. 26-50%; 3+, 51-75%; 4+, >75%. The fat was also assessed as to whether it was totally macrovesicular, predominantly macrovesicular, totally microvesicular, predominantly microvesicular, or mixed macro- and microvesicular. In addition, the zone was assessed as to whether the fat was perivenular, periportal, diffuse, or focal. Inflammation was graded as absent, scanty (1 to 3 foci/slide), present (scattered, with 4 to 10 foci/slide), present + (scattered, >10 foci/slide but not numerous), and present ++ (numerous). The type of inflammation was graded as totally mononuclear, predominantly mononuclear, totally neutrophilic, predominantly neutrophilic, and mixed mononuclear-neutrophilic. The hydropic change of hepatocytes was graded as absent, mild, and moderate/severe, with the location noted as perivenular, focal or diffuse.

C57Bl/6J mice [2] = experiment: Western diet model: fibrosis by Sirius red whole-section-scanning morphometric image analysis; format: in vivo, mouse
Method: as §1
Sirius red staining was performed by the Morphology core of the USC-UCLA Research Center for Alcoholic Liver and Pancreatic Diseases. α-Smooth muscle actin.
Tissue sections stained with Sirius red were scanned by a third-generation Automated Cellular Imaging System (ACIS III), a highly automated microscope-based digital imaging system (Carl Zeiss MicroImaging AIS Inc., Aliso Viejo Calif.). The color of the Sirius red staining in the digitized tissue sections was determined and applied to a pre-existing algorithm that provides the area of a target color in μm^2. The outline of each digitized tissue section was manually traced using the computer's mouse. Areas of large portal tracts and central veins were also outlined manually. The total area (μm^2) of each tissue section and of the total area of large portal tracts and central veins were determined by the image analysis system. The area of fibrosis was calculated as [total area stained by Sirius red minus perivascular staining] as a percentage of the size of the tissue section. This method has the advantage of scanning the entire section, rather than measuring fibrosis in randomly chosen fields.

[3] = test system: murine hepatic stellate cells (HSC); experiment: Culture-induced activation of primary hepatic stellate cells (ASMA and oil red O staining); format: cell-based, mouse
Method: Murine hepatic stellate cells (HSC) were isolated by collagenase/pronase digestion and Stractan density gradient centrifugation^16. α-Smooth muscle actin (ASMA) staining: HSC were cultured on glass coverslips and fixed with 10% formaldehyde (EM Science, Gibbstown, N.J.) for 20 minutes at room temperature. Cells were incubated with a mouse monoclonal anti-ASMA (1:250 or 1:50, as indicated), followed by a rabbit anti-mouse IgG TRITC conjugate (1:50, Santa Cruz Scientific, Santa Cruz, Calif.). Slides were examined using a Nikon PCM-2000 confocal microscope with a Nikon Eclipse TE300 microscope with a plan Apo 60×/1.4 aperture oil immersion objective, 543-nm laser, and Simple PCI software from the C-Imaging series from Nikon/Compix Inc (Cranberry Township Pa.). Values were obtained by counting the number of ASMA positive cells in 15 randomly selected fields in triplicate. […]
To examine the mechanism of action of D-4F, murine hepatic stellate cells (HSC) were cultured on plastic for 7 days in the absence or presence of 10 μg/ml D-4F. Without D-4F, 87±2% of cells expressed α-smooth muscle actin (ASMA) after 7 days as assessed by confocal microscopy. In contrast, in the presence of D-4F 0% of HSC expressed ASMA after 7 days (see FIG. 7).

[4] = group 3 vs group 1, Western diet 9.5 months, D-4F last 2.5 months
[5] = 7 months Western diet followed by 2.5 months Western diet + drug
[6] = 7 months Western diet followed by 2.5 months chow + drug

In the case of “Ac-D-W-F-K-A-F-Y-D-K-V-A-E-K-F-K-E-A-F-NH2 (Ac-[dD][dW][dF][dK][dA][dF][dY][dD][dK][dV][dA][dE][dK][dF][dK][dE][dA][dF]-NH2; not fully specified; printed as Ac-D-W-F-K-A-F-Y-D-K-V-A-E-K-F-K-E-A-F-NH2) [D-4F]”, the “inflammation, histologically” value (C57Bl/6J mice [1]; [4]) is reported as “some evidence of a reduction”, the “steatosis, histologically” value (C57Bl/6J mice [1]; [4]) is reported as “no effect” and the “inflammation, histologically” value (C57Bl/6J mice [1]; group 6 (switch to chow plus D-4F) vs group 4 (switch to chow)) is reported as “perhaps a small decrease”. The “Fatty Change Degree of fat” value (C57Bl/6J mice [1]; [5]) was 4, the “Fatty Change Type (predominant type)” value (C57Bl/6J mice [1]; [5]) was “Macrovesicular” and the “Inflammatory Clusters” value (C57Bl/6J mice [1]; [5]) was 3 (3×) and 2. For the same substance, the “Fatty Change Degree of fat” value (C57Bl/6J mice [1]; [6]) was 2 (2×) and 0 and 3, the “Fatty Change Type (predominant type)” value (C57Bl/6J mice [1]; [6]) was “Mixed” and the “Inflammatory Clusters” value (C57Bl/6J mice [1]; [6]) was 1 and 2 (3×). For the same substance, the “steatohepatitis (summary)” value (C57Bl/6J mice [1]; summary statement) was “did not alter steatohepatitis”, the “fibrosis (surface area positive for Sirius red staining)” value (C57Bl/6J mice [2]; group 3: Western diet 9.5 months, D-4F 125 μg/mouse/day in drinking water last 2.5 months, group 1 without drug 4.6±1.9%) was 1.25% and the “fibrosis (surface area positive for Sirius red staining)” value (C57Bl/6J mice [2]; group 6: 7 months Western diet, then 2.5 months chow plus D-4F, group 4 chow alone 2.8±0.7%) was 0.9±0.2%. For the same substance, the “progression of fibrosis after onset of steatohepatitis” value (C57Bl/6J mice [2]; summary statement) was “prevented progression of fibrosis”, the “cytoplasmic fat (lipid) droplets, oil red O staining” value ([3]; HSC cultured 7 days in the presence of D-4F vs without) was “maintain significantly more lipid droplets; also recorded: maintained cytoplasmic fat droplets” and the “hepatic stellate cell activation in vitro” value ([3]; summary statement) was “prevented hepatic stellate cell activation”.
